Source: patent publication US10265298B2, “Method of increasing the bioavailability of silybin” (Macau University of Science and Technology, priority 2017, dated 2019)

Legend:
[1] = in vitro; format: in vitro ADME, rat; settings: male, Sprague Dawley, rat
Experimental: Sandwich-cultured rat hepatocytes (SCHs) were established according to previously described methods with minor modifications. Primary rat hepatocytes were isolated from male Sprague Dawley® (SD) rats (220-270 g) using a collagenase perfusion as described previously and plated at a density of 7.4×10^5 cells/2 ml/well onto six-well BioCoat plates. Approximately 24 hours later, hepatocytes were overlaid with 2 ml of 0.25 mg/ml BD Matrigel basement membrane matrix in Dulbecco's modified Eagle medium (DMEM) containing 1% volume by volume percentage (v/v) insulin/transferrin/selenium culture supplement, […] dexamethasone, 2 mM L-glutamine, 1% (v/v) minimum essential medium nonessential amino acids, 1% penicillin-streptomycin. Hepatocytes were cultured for 4 days to allow extensive formation of canalicular networks between cells before experimentation and the medium was changed daily.
Sandwich-cultured hepatocytes (SCHs) were pre-incubated in 2 milliliters (ml) of warm Hank's Balanced Salt Solution (HBSS) with or without Ca^2+ at 37° C. for 15 minutes; the tight junctions of the bile canaliculi open temporally after exposure to HBSS without Ca^2+. Subsequently, cells were incubated at 37° C. for 20 minutes with 1.5 ml of standard HBSS containing silybin (10 μM), or MK 571 (50 μM) as a positive control, or baicalein (25, 15.8, 5, 1.58, 0.5, 0.16 μM), or tangeretin (25, 15.8, 5, 1.58, 0.5 μM). After 20 min, cells were washed three times with ice-cold standard HBSS. The cell samples were lysed by sonication in 1 ml of water for 5 seconds with the ultrasonic cell disruption system (SONICS & […], INC., Newtown, Conn., USA). Conjugated silybin and unconjugated (free) silybin were quantified by high-performance liquid chromatography-tandem mass spectrometry (HPLC-MS/MS). Transport function was normalized to the protein content of the hepatocytes which was evaluated by bicinchoninic acid (BCA) protein assay (Pierce Chemical, Rockford, Ill.). The biliary excretion index (BEI; %) and in vitro biliary clearance (Clbiliary; ml/min/kg) were calculated by using B-CLEAR technology (Qualyst, Inc., Research Triangle Park, N.C.) based on the following equations: […]

[2] = system: MCD diet-induced NASH; test: MCD diet-induced nonalcoholic steatohepatitis (NASH) mouse model; format: in vivo
Excerpt: Male wild-type (WT) mice C571BI/6 were fed either methionine/choline-sufficient (MCS) chow diet (Trophic Animal Feed High-tech Co., Ltd, China) or MCD diet (Trophic Animal Feed High-tech Co., Ltd, China) for 7 weeks. Animals were randomly divided into eight groups: 1) control, fed a standard control MCS diet and given vehicle (35% polyethylene glycol (PEG) 400:15% Cremophor EL:5% ethanol:45% saline); 2) rats fed a MCD diet and given vehicle; 3) rats fed the MCD diet and orally treated with silybin (300 milligrams per kilogram (mg/kg)); 4) rats fed the MCD diet and orally treated with silybin (150 mg/kg); 5) rats fed the MCD diet and orally treated with tangeretin (150 mg/kg); 6) rats fed the MCD diet and orally treated with 75 mg/kg silybin and 75 mg/kg tangeretin (SB & TG—L); 7) rats fed the MCD diet and orally treated 150 mg/kg silybin and 150 mg/kg tangeretin (SB & TG—M); 8) rats fed the MCD diet and orally treated with 300 mg/kg silybin and […]. Body weight was intermittently monitored during the diet-induction period and every two or three days during the intervention period.
At the end of 8 weeks, mice were sacrificed under ether anesthesia. The following procedures are same as the description under “2.10 Effects of silybin on acute liver damage induced by CCl4 in rats”. The cytokine levels including tumor necrosis factor alpha (TNF-α) (eBioscience Inc, San Diego, Calif., USA), interleukin-6 (IL-6) assay kit (Raybiotech, Norcross, Ga., USA) in serum of NASH model were further measured using commercially available enzyme-linked immunosorbent assay (ELISA) kits.

| inhibition at 20 min [1] [%] | Structure (SMILES) | MCD diet-induced TC and TG increase ([2]; mice on MCD diet) | body weight ([2]; mice on MCD diet) | lipid accumulation and inflammatory infiltration in liver (H&E) ([2]; mice on MCD diet) | liver/body weight ratio ([2]; mice on MCD diet) | MCD diet-induced elevation of ALT, AST, MDA, SOD, GSH and GSH/GSSG ratio ([2]; silybin 300 mg/kg, silybin-tangeretin treatment) | liver/body ratio ([2]; silybin by co-treatment with tangeretin, FIG. 35A) | body weight and liver weight ([2]; silybin by co-treatment with tangeretin, FIG. 35B, 35C) | MCD diet-induced cytokines elevation (IL-1β, TNF-α, IL-6) ([2]; silybin treatment in the absence or presence of tangeretin) |
| --- | --- | --- | --- | --- | --- | --- | --- | --- | --- |
| ~90 | COc1ccc(-c2cc(=O)c3c(OC)c(OC)c(OC)c(OC)c3o2)cc1 [tangeretin] |  |  |  |  |  |  |  |  |
|  | COc1cc(C2Oc3cc([C@H]4Oc5cc(O)cc(O)c5C(=O)[C@@H]4O)ccc3OC2CO)ccc1O (stereo partly drawn) [silybin] | clearly inhibited | slightly increased | decreased | moderate decrease | suppressed | significantly decreased | did not significantly affect | suppressed |
